Structures are written as SMILES.

This data set has as its target Multidrug resistance-associated protein 1 (Homo sapiens, UniProt P33527). Nature of the data set: TP_TRANSPORTER: inhibition of LTC4 uptake (LTC4: 0.00134 uM, MS-209: 3 uM) in membrane vesicles from MKN45R0.8 cells. Type of data set: functional, cell membranes, Membrane vesicle. Details: scale not given: the % may be the effect or the level left. The note with it: mkn45r0.8, 3 µM.

Sequence of Multidrug resistance-associated protein 1 (P33527 whole entry): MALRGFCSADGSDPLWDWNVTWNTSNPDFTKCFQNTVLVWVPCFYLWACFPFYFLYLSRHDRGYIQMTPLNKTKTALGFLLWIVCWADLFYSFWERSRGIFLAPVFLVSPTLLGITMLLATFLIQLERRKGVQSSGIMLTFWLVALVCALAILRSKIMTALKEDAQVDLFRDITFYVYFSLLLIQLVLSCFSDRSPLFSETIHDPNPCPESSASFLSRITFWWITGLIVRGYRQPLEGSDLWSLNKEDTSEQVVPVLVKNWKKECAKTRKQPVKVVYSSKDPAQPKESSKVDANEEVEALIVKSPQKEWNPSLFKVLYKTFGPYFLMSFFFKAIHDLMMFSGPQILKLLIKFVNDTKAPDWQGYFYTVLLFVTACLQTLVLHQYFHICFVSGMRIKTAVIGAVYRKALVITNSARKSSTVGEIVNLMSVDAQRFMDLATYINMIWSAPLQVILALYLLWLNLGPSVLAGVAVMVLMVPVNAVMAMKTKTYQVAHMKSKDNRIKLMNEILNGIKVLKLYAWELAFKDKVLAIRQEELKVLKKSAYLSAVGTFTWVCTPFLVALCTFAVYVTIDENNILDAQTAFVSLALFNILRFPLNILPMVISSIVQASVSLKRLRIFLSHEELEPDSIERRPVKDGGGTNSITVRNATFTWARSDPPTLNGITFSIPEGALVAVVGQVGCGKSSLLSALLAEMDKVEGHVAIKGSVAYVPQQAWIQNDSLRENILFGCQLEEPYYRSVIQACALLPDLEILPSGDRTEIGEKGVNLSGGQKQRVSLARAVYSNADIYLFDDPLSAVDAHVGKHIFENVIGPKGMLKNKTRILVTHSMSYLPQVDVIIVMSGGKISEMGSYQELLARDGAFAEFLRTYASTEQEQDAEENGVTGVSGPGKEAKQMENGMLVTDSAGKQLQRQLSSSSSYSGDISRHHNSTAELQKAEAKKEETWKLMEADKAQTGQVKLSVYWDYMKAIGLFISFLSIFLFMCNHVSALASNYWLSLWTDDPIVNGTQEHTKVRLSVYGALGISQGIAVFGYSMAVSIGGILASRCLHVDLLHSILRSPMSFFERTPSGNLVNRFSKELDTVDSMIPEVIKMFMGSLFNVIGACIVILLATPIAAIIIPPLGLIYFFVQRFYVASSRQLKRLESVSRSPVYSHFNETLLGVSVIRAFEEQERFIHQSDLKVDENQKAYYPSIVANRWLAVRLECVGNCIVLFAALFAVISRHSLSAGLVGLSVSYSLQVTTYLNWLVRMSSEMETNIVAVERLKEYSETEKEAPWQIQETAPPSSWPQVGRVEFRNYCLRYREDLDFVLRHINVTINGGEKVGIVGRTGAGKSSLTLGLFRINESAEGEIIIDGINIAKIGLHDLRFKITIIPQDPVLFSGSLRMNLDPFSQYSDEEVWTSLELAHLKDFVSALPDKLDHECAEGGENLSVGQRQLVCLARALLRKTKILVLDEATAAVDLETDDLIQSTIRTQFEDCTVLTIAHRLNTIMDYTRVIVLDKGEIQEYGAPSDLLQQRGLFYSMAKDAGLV

Take `O=C(C(c1ccccc1)c1ccccc1)N1CCN(C[C@@H](O)COc2cccc3ncccc23)CC1`: the Activity amounted to 20%.

The values are drawn from ChEMBL document CHEMBL2074028, “Direct interaction between a quinoline derivative, MS-209, and multidrug resistance protein (MRP) in human gastric cancer cells” (Biochem Biophys Res Commun, 1999).
